In patent US7432303B2, “Chalcone and its analogs as agents for the inhibition of angiogenesis and related disease states” (James and Emory University, priority 1999, dated 2008):

System: SVR cells
Assay: SVR cell assay: cell numbers counted at 48 hours, percent inhibition versus control
Type: cell-based, murine
Settings: 10,000 SVR cells in 24 well dish, counted at 48 hours; for Percent Inhibition at a Specified Density (μg/ml): 1 / inhibition at 1 µg/mL: 1 μg/ml; for Percent Inhibition at a Specified Density (μg/ml): 3 / inhibition at 3 µg/mL: 3 μg/ml; for Percent Inhibition at a Specified Density (μg/ml): 6 / inhibition at 6 µg/mL: 6 μg/ml; for inhibition at 1 µg/mL: read-out: Percent Inhibition at a Specified Density (μg/ml): 1; for inhibition at 3 µg/mL: read-out: Percent Inhibition at a Specified Density (μg/ml): 3; for inhibition at 6 µg/mL: read-out: Percent Inhibition at a Specified Density (μg/ml): 6
Description: In the case of testing the anti-angiogenic/anti-cancer activity of compounds according to the present invention, an assay based on SVR cells may be employed. […] The cell numbers are counted and compared against controls. Percent inhibition is readily determined from the data obtained.
10,000 SVR cells were seeded in a 24 well dish [Arbiser, et al., J. Am. […] The cell numbers were counted at 48 hours.

Structure (SMILES)	Percent Inhibition at a Specified Density (μg/ml): 1	Percent Inhibition at a Specified Density (μg/ml): 3	Percent Inhibition at a Specified Density (μg/ml): 6	Percent Inhibition at a Specified Density (μg/ml): 9 (9 μg/ml)	inhibition at 1 µg/mL (Mus musculus)	inhibition at 3 µg/mL (Mus musculus)	inhibition at 6 µg/mL (Mus musculus)	inhibition at 9 µg/mL (Mus musculus, 9 μg/ml, read-out: Percent Inhibition at a Specified Density (μg/ml): 9)
O=C(C=Cc1ccco1)c1ccccc1 [Compound 45, 3-(2-Furyl)-1-phenylpropenone]	9.8%	1.0%	0.0%	–	–	–	–	–
O=C(C=Cc1ccccn1)c1ccccn1 [Compound 46, 1,3-Di(2-pyridyl)propenone]	0.0%	53.4%	85.2%	–	–	–	–	–
O=C(C=Cc1ccccn1)c1ccccc1 [Compound 47, 1-Phenyl-3-(2-pyridyl)propenone]	40.7%	89.1%	96.9%	–	–	–	–	–
O=C(C=Cc1cccnc1)c1ccccc1 [Compound 48, 1-Phenyl-3-(3-pyridyl)propenone]	30.0%	31.7%	83.2%	–	–	–	–	–
O=C(C=Cc1ccccc1)c1ccc[nH]1 [Compound 49, 3-Phenyl-1-(2-pyrrolyl)propenone]	8.3%	11.4%	19.4%	–	–	–	–	–
O=C(C=Cc1ccc[nH]1)c1ccccc1 [Compound 50, 1-Phenyl-3-(2-pyrrolyl)propenone]	19.0%	21.5%	0.0%	–	–	–	–	–
O=C(C=Cc1ccccc1)c1c2ccccc2cc2ccccc12 [Compound 51, 1-(9-Anthryl)-3-phenylpropenone]	25.5%	46.4%	69.0%	–	–	–	–	–
O=C(C=Cc1c2ccccc2cc2ccccc12)c1ccccc1 [Compound 52, 3-(9-Anthryl)-1-phenylpropenone]	54.6%	53.5%	71.3%	–	–	–	–	–
O=C(C=Cc1c2ccccc2cc2ccccc12)c1c2ccccc2cc2ccccc12 [Compound 53, 1,3-Di(9-Anthryl)propenone]	0.0%	0.0%	4.7%	–	–	–	–	–
O=C(C=Cc1ccc2ccccc2c1)c1c2ccccc2cc2ccccc12 [Compound 54, 1-(9-Anthryl)-3-(2-naphthyl)propenone]	52.5%	57.3%	48.1%	–	–	–	–	–
O=C(C=Cc1ccccc1)c1cccc2ccccc12 [Compound 58, 1-(1-Naphthyl)-3-phenylpropenone]	10.9%	33.2%	68.0%	–	–	–	–	–
O=C(C=Cc1c(Cl)cccc1Cl)c1ccc2ccccc2c1 [Compound 59, 3-(2,6-Dichlorophenyl)-1-(2-naphthyl)propenone]	–	81.0%	97.4%	98.3%	–	–	–	–
O=C(C=Cc1ccc2ccccc2c1)c1ccc2ccccc2c1 [Compound 60, 1,3-Di(2-naphthyl)propenone]	–	13.2%	20.3%	27.1%	–	–	–	–
O=C(C=Cc1ccccc1)c1ccc2ccccc2c1 [Compound 61, 1-(2-Naphthyl)-3-phenylpropenone]	–	92.2%	94.7%	96.0%	–	–	–	–
O=C(C=Cc1ccc2ccccc2c1)c1ccccc1 [Compound 62, 3-(2-Naphthyl)-1-phenylpropenone]	–	29.5%	44.3%	69.1%	–	–	–	–
O=C(C=Cc1cccc2ccccc12)c1ccc2ccccc2c1 [Compound 63, 1-(2-Naphthyl)-3-(1-naphthyl)propenone]	0.0%	24.9%	50.3%	–	–	–	–	–
O=C(C=Cc1ccc2ccccc2c1)c1cccc2ccccc12 [Compound 64, 1-(1-Naphthyl)-3-(2-naphthyl)propenone]	0.0%	22.4%	52.0%	–	–	–	–	–
O=C(C=Cc1cccc2ccccc12)c1cccc2ccccc12 [Compound 65, 1,3-Di(1-naphthyl)propenone]	12.0%	55.5%	60.3%	–	–	–	–	–
O=C1C(=Cc2ccccc2)COc2ccccc21 [Compound 66, 3-Benzylidene-4-chromanone]	–	–	–	–	12.3%	23.8%	54.3%	–
O=C1C(=Cc2c(Cl)cccc2Cl)COc2ccccc21 [Compound 67, 3-(2,6-Dichlorobenzylidene)chromanone]	5.4%	3.6%	12.5%	–	–	–	–	–
O=C1C(=Cc2ccccc2)CCc2ccccc21 [Compound 68, 2-(Benzylidene)tetralone]	–	57.9%	97.5%	96.7%	–	–	–	–
O=C1C(=Cc2c(Cl)cccc2Cl)CCc2ccccc21 [Compound 69, 2-(2,6-Dichlorobenzylidene)tetralone]	32.8%	37.0%	53.7%	–	–	–	–	–
O=C1C(=Cc2cccc3ccccc23)CCc2ccccc21 [Compound 70, 2-(1-Naphthylidene)tetralone]	18.7%	15.9%	23.6%	–	–	–	–	–
O=C(/C=C/c1c(F)cccc1Cl)/C=C/c1c(F)cccc1Cl [Compound 72, 1,5-Di(2-chloro-6-fluorophenyl)-1E,4E-pentadien-3-one]	–	–	–	–	57%	70.6%	86.6%	–
O=C(/C=C/c1c(Cl)cccc1Cl)/C=C/c1c(Cl)cccc1Cl [Compound 73, 1,5-Bis(2,6-dichlorophenyl)-1E,4E-pentadien-3-one]	–	–	–	–	60.7%	87.1%	90.4%	–
O=C(/C=C/c1ccco1)/C=C/c1ccco1 [Compound 74, 1,5-Di(2-furyl)-1E,4E-pentadien-3-one]	–	–	–	–	0%	9.3%	56.5%	–
O=C1C(=Cc2ccccc2)CCCC1=Cc1ccccc1 [Compound 75, 2,6-Di(benzylidene)cyclohexanone]	–	–	–	–	–	91.3%	92.8%	97.4%
O=C1C(=Cc2c(Cl)cccc2Cl)CCCC1=Cc1c(Cl)cccc1Cl [Compound 76, 2,6-Bis(2,6-dichlorobenzylidene)cyclohexanone]	–	–	–	–	8.4%	29.8%	27.1%	–
O=C1C(=C2C=CC=CN2)CCCC1=C1C=CC=CN1 [Compound 79, 2,6-Di(2-pyridylidene)cyclohexanone]	–	–	–	–	88.3%	92.9%	96.7%	–
